The subject of test [1] is Jurkat cells. In words: UV-C- and anti-Fas-induced apoptosis in Jurkat cells. The format is cell-based, human. The conditions noted are these: 50 mM imipramine 30 min; 4 hours post UV-C or Fas stimulation. The protocol: (§1) Others have shown that ceramide is required for Fas-induced apoptosis in some cell types. We looked at the requirement for UV-C-induced ceramide generation in initiating the apoptotic response. By UV-C is meant ultraviolet radiation in the 100-280 nm wavelength range. In these studies imipramine was used to inhibit ASMase-activity. Pre-treatment of Jurkat cells with […] imipramine for 30 min decreased baseline ASMase activity, abrogated UV-C and Fas-induced ASMase activation at 1 min post stimulation and ceramide generation at 2 minutes, and attenuated apoptosis at 4 hours post-stimulation. […] Grassme et al., J Biol Chem. 2001, 276:20589, incorporated herein by reference.
H. Grassme, H. Schwarz, and E. Gulbins, Biochem Biophys Res Commun 284 (4), 1016 (2001), incorporated herein by reference. […] Importantly, we also observed that anti-ceramide and nystatin pretreatment yielded an approximate 1 log increase in clonogenic cell survival compared to vehicle controls after 5-50 J/m^2 UV-C or anti-Fas stimulation. […]
Apoptosis was assessed in vitro by two different techniques. […] Morphologic changes of nuclear apoptosis including chromatin condensation, segmentation and compaction along the periphery of the nucleus or the appearance of apoptotic bodies were quantified using an Axiovert S-100 Zeiss fluorescence microscope as previously described ^33. […]

The next test deals with T1, ASMase (Homo sapiens, UniProt P17405).
T1 construct: Jurkat cells were lysed in PBS containing 0.2% Triton X-100; endogenous in cells; host or cells: Jurkat T lymphocytes (clone E6-1, ATCC)
T1 sequence (P17405 47-631): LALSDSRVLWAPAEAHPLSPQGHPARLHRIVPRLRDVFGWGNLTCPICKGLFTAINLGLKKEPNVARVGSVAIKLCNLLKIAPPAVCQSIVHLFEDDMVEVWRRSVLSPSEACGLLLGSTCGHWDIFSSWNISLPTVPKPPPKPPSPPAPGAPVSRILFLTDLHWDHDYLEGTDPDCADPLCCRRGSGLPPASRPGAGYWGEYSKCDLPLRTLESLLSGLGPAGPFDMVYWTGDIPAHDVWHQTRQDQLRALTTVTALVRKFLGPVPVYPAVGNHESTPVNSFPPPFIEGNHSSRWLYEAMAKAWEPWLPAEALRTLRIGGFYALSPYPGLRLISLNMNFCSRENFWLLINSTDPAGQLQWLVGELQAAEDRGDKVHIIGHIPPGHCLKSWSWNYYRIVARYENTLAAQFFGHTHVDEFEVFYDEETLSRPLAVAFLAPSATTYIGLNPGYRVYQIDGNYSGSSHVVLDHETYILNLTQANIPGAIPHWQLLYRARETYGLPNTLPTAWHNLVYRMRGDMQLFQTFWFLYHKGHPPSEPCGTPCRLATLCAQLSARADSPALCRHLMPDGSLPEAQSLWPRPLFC
Put plainly: ASMase activity assay in Jurkat cells stimulated with UV-C or anti-Fas. Format: cell-based. Here is the method: as §1, with “reference. […]” for “reference.”
ASMase activity was measured using a fluorescence-based, high-performance liquid chromatographic (HPLC) assay^98. […] ASMase activity was measured by incubating an equal volume of lysate in assay buffer [500 μM BODIPY-C12 sphingomyelin (Molecular Probes, Eugene OR), 0.1 mM ZnCl2, 0.1 M sodium acetate pH 5.0 and 0.6% Triton X-100] for 60 min at 37° C. […] Fluorescence was quantified using a Waters 474 (Waters Corp.) fluorescence detector set to excitation and emission wavelengths of 505 and 540 nm, respectively. The amount of product generated was calculated using a regression equation derived from a standard curve established for known amounts of BODIPY-C12 ceramide standard. […]

The test system of test [2] is Jurkat cells. In words: Ceramide generation in Jurkat cells (diacylglycerol kinase assay). The format is cell-based, human. The following applies: 50 mM imipramine 30 min; 2 minutes post UV-C or Fas stimulation. Here is the method:
as §1
Jurkat cells, stimulated with UV-C or CH-11, were incubated for the indicated times at 37° C. Stimulation was terminated by the addition of 2 ml of chloroform:methanol:HCl (100:100:1,v/v/v), and ceramide was quantified by the diacyglycerol kinase assay, as described^97.

With `CN(C)CCCN1c2ccccc2CCc2ccccc21` [imipramine], in the test on Jurkat cells [1], the apoptosis result is “attenuated”. For the same compound, the “UV-C and Fas-induced ASMase activation” value at ASMase (50 mM imipramine 30 min, 1 min post stimulation) is recorded as “abrogated”. In addition, the “baseline ASMase activity” value on ASMase (pre-treatment with 50 mM imipramine for 30 min) was “decreased”. Besides, the ceramide generation result with Jurkat cells [2] was “abrogated”.
